Data as given in a melting point compilation (Tetko et al.; mined from patent text by program, amines drawn as free bases though some values may be those of a salt).

First: C=CC(=O)OC1CC(C)(C)N(OC2CCCCC2)C(C)(C)C1
Second: N[C@@H]1CCCN([C@@H]2Cc3ccccc3[C@H]2Oc2cc3c(cc2Cl)NC(=O)CC3)C1
The melting point of the first is lower: 49 to 52 °C for the first, 184 °C for the second.

First: CC(C)(C)OC(=O)NCc1cccc(C(=O)N[C@H]2C[C@H](C(=O)O)Nc3cc(Cl)cc(Cl)c32)c1 (relative stereo)
Second: CCOC(=O)C1=C(C)NC(C)=C(C(=O)OCC)C1c1ccccc1/C=C/C(=O)OC(C)(C)C
The melting point of the first is higher: 192 to 193 °C for the first, 143 to 145 °C for the second.

Compared with Cc1cccc(CNc2ncnc3nc[nH]c23)c1O, Clc1ccc2c(c1)N(c1ncnc3cnccc13)CC2 is lower in melting point: 276 to 277 °C for the first, 194 to 196 °C for the second.

First: O=C(O)c1ccc2c(c1)Sc1cc3c(cc1C=C2)CCC3
Second: O=C(NCCO)NC1CCCc2ccccc21 (stereo not given)
The melting point of the first is lower: 103 to 104 °C for the first, 146 to 149 °C for the second.

First: C=CCN(CC=C)C(=O)n1cnc(S(=O)CC)n1 (stereo not given)
Second: CCOC(=O)c1ccn2nccc2n1
The melting point of the first is lower: 41 to 43 °C for the first, 114 to 115 °C for the second.

Compared with Cc1ccccc1C=CCC(CCC(=O)O)(C(=O)C=Cc1ccc(Cl)cc1)c1ccccc1 (stereo not given), CCNC(=O)c1c(Cl)cccc1[Si](C)(C)c1ccccc1 is higher in melting point: 60 to 80 °C for the first, 89 to 91 °C for the second.

Compared with O=C1CCCC(=O)N1c1cc(Br)cc(Br)c1, CN(C)C1(c2ccc(F)cc2)CCC(=O)CC1 is lower in melting point: 152 to 154 °C for the first, 128 to 133 °C for the second.

Compared with COc1cc(C)nc(NC(=O)NS(=O)(=O)c2ccccc2OC(F)(F)F)n1, Cc1cc(Oc2cc(C(F)(F)F)nn2C)nc(-c2ccsc2)n1 is lower in melting point: 162 °C for the first, 122 °C for the second.

Compared with O[C@@H](CNCCOc1ccc2cc(-c3ccon3)oc2c1)COc1ccccc1, COC(=O)c1cccc(Nc2nccc(-c3sc(N)nc3-c3ccccc3)n2)c1 is higher in melting point: 107 to 110 °C for the first, 223 to 225 °C for the second.

First: N#CC(C#N)=C1N(CCCCN2CCCCC2)CCN1CCCN1CCCCC1
Second: CC(=O)NCC1CN(c2ccc(N3CCN(C(=O)CCC(=O)c4ccc(CN5CCOCC5)cc4)CC3)c(F)c2)C(=O)O1 (stereo not given)
The melting point of the first is lower: 88 to 90 °C for the first, 178 to 179 °C for the second.

Compared with COc1ccc(C2=CCC(N3CCN(Cc4ccccc4)CC3)CC2)cc1 (stereo not given), Cc1ccc(-c2ccc3c(c2)C=C(C(=O)Nc2ccc(CN4CCCCC4)cc2)CC3)cc1 is higher in melting point: 126 to 128 °C for the first, 187 to 189 °C for the second.

Cc1ccc(-c2[nH]c3c(Br)cc(Br)cc3c(=O)c2Cc2ccncc2)cc1 and Cc1oncc1C(=O)N1CCN(c2ccc(NC(=O)c3cnn(-c4ccc(F)cc4)c3C)cc2C#N)CC1 cannot be ordered by melting point: 206 to 208 °C for the first, 208 °C for the second.

First: O=C1c2cc(OC(F)(F)F)ccc2S(=O)(=O)N1CCCCBr
Second: O=C(O)c1c(Cl)c(Cl)c(Cl)c(Cl)c1C(=O)Nc1ccc(S(=O)(=O)C(F)(F)F)cc1
The melting point of the first is lower: 77 to 78 °C for the first, 92 to 97 °C for the second.

Compared with COc1cc(F)c(C(O)C#N)cc1OC (stereo not given), COc1cc(-c2cnc3[nH]cc(C(=O)CC(C)C)c3n2)cc(OC)c1OC is higher in melting point: 112 to 114 °C for the first, 210 to 211 °C for the second.

Compared with N#Cc1cc(C(=O)Nc2cncnc2Cl)ccc1Cl, O=C(Nc1cn(C2CCCCO2)nc1C(=O)NCCC(F)(F)F)c1ccccn1 (stereo not given) is lower in melting point: 189 to 190 °C for the first, 144 to 145 °C for the second.

Compared with CCN(CC)C(=O)CCCN(C(=O)Nc1cc(OC)cc(C(C)(C)C)c1O)c1ccccc1, CCOC(=O)C1=C(C)N=C(SCc2ccc(OC)cc2)N(C(=O)OCC)C1c1cccc(OC)c1 (stereo not given) is lower in melting point: 131 to 133 °C for the first, 79 to 81 °C for the second.

Compared with CN(CCc1c[nH]c2ccc(CNS(C)(=O)=O)cc12)C(=O)OCc1ccccc1, Cc1ccc(C2(O)C(c3ccccc3)SC3=NCCCCN32)s1 (stereo not given) is lower in melting point: 118 to 120 °C for the first, 70 to 90 °C for the second.

Compared with Fc1cc(Cl)c(OCC2=CCCOC2)cc1-n1nc2c(c1Cl)CCCC2, COC(=O)C(OC)C(=S)Nc1cc(Cl)cc(Cl)c1 (stereo not given) is higher in melting point: 90 to 92 °C for the first, 144 to 147 °C for the second.

Compared with CCOC(=O)c1csc(-c2cccnc2)n1, Cc1c(C)c2c(c(C)c1O)SC(C)(c1ccccc1)O2 (stereo not given) is higher in melting point: 73 to 75 °C for the first, 80 to 81 °C for the second.

First: COc1cc(SC(F)F)nc(N)n1
Second: O=C(Nc1ccc(-n2ccnc2)cc1)Nc1ccc(C(F)(F)F)cc1
The melting point of the first is lower: 83 to 84 °C for the first, 209 to 213 °C for the second.
